In PubChem BioAssay AID2060889 (Molecular Pharmacology Branch, DTP, NCI, 2025) one finds viability, T/C and IC50 data, which are given here for 13 compounds.

Values joined by “and” are separate entries in the source; they are usually repeats but may differ in a detail not shown here. Equal entries are not always repeated.

This test has as its system LG0567-F671-PDC complex spheroids viability. Description: Anticancer human tumor LG0567-F671-PDC patient-derived lung adenocarcinoma cell line growth inhibition [RAS]. Particulars: for viability, T/C: stronger effect = lower value. The text has this: RAS pathway inhibitors in Combinations in Complex Spheroids
A high-throughput screen of multi-cell type tumor spheroids was designed to identify active combinations of RAS pathway inhibitors and targeted small molecules. Complex spheroids include a stromal component modeled by human endothelial cells (HUVEC) and fibroblasts modeled by human mesenchymal stem cells (MSCs). The concentration ranges selected for each drug and investigational agent were based upon clinically achievable concentrations if the clinical Cmax of the agent was known.
Compounds. The drugs and investigational agents: abemaciclib (NSC768073), cobimetinib (NSC768068), divarasib (GDC6063, NSC841802), docetaxel (NSC628503), GDC-1971 (RLY-1971, NSC841576), gemcitabine (NSC613327), inavolisib (NSC800729), ipatasertib (NSC767898), KB-0742 (NSC834161), MRTX-1133 (NSC836407), osimertinib (NSC779217), RMC-4630 (NSC839698), RMC-6236 (NSC851965), RMC-6291 (NSC852671), Ro-3306 (NSC812927), sapanisertib (NSC764658), SN-38 (NSC673596), staurosporine (NSC755774), SY5609 (NSC837396), and tovorafenib (DAY101, NSC766906), were obtained from the National Cancer Institute (NCI) Developmental Therapeutics Program Chemical Repository. The FDA-approved anticancer drug set is available from the NCI Developmental Therapeutics Program. […] The stock solutions were prepared in dimethyl sulfoxide (DMSO, Sigma-Aldrich, St. Louis, MO, cat. D2650) at 800-fold the tested concentration and stored at -70 degrees C prior to their use. All drugs and investigational agents were tested over a range starting from a high concentration at or near the clinical Cmax and decreasing in half-log increments. If the clinical Cmax for an agent had not been determined, the highest concentration tested was 10 microM.
Cell Culture. All cells were maintained in an incubator at 37 degrees C and 5% CO2 with 95% humidity. The PDC lines were cultured according to standard operating procedures established by the NCI PDMR. All PDCs were thawed and cultured in Matrigel-coated flasks prepared with a working solution of 1X Ham's F-12 nutrient mix, without supplementation (Invitrogen, Waltham, MA, cat. 11765054), 100 U/mL penicillin-streptomycin (Invitrogen, cat. 15140122), and 2.5% Matrigel (Corning Inc., Corning, NY, cat. 354248) for the first three passages. The 362531-283-R-J2-PDC and 782815-120-R-J1-PDC lines were cultured in 6C/Colon 1B media, which includes advanced DMEM/F-12 (Thermo Fisher Scientific, cat. 12634028), 10 mM HEPES (Thermo Fisher Scientific, cat. 15630080), 1X GlutaMAX supplement (Thermo Fisher Scientific, cat. 35050061), 0.1 mg/mL primocin (InvivoGen, San Diego, CA, cat. ant-pm-2), 10% defined fetal bovine serum, heat inactivated (HyClone Laboratories Inc., Logan, UT, cat. SH30070.03HI), 50% L-WRN conditioned media (ATCC, cat. CRL-3276), 1.25 mM N-Acetyl-L-cysteine (Sigma-Aldrich, cat. A9165), 10 mM nicotinamide (Sigma-Aldrich, cat. N0636), 1X B-27 supplement (Thermo Fisher Scientific, cat. 17504044), 1X N-2 supplement (Thermo Fisher Scientific, cat. 17502048), 50 ng/mL human EGF (Thermo Fisher Scientific, cat. PHG0311), and 10 microM Y-27632 dihydrochloride (Tocris Bioscience, cat. 1254). The K12877-001-R-J1-PDC line was cultured in 6I media, which includes all 6C/Colon 1B media plus 10 ng/mL human FGF-10 (PeproTech, cat. 100-26), 1 ng/mL human FGF-2 (PeproTech, cat. 100-18B), 1 µM prostaglandin E2 (Tocris Bioscience, cat. 2296), […] hydrocortisone (Sigma-Aldrich, cat. H4001), and […] bovine insulin (Sigma-Aldrich, cat. I6634). The K86415-001-R-J1-PDC line was cultured in 6D media, which includes all 6C/Colon 1B media components minus the L-WRN conditioned media. The 485176-168-R4-J1-PDC was cultured in PANC media, which includes all 6C/Colon 1B media plus 100 ng/mL human FGF-10 (PeproTech, cat. 100-26), 500 nM SB-431542 (Selleckchem, cat. S1067), and 10 nM gastrin (Tocris Bioscience, cat. 3006). […]

Setting [1] is: compound alone, run of 09/09/2024.
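Note: spheroids exposed to compound for seven days before readout.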
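Throughout, for IC50: luminescence signal used as a proxy for viable cells.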

As usually defined, the viability, T/C is the result in the treated group divided by that in the control group, in per cent. The term IC50 denotes the concentration that gives 50% inhibition. For the compound `C#Cc1c(F)ccc2cc(O)cc(-c3ncc4c(N5CC6CCC(C5)N6)nc(OCC56CCCN5CC(F)C6)nc4c3F)c12` (stereo unspecified), the viability, T/C is, setting by setting: (compound 0.0316 µM) 91.2% [middle of 8 runs]; (compound 0.1 µM) 80% [middle of 8 runs]; (compound 0.316 µM) 56.1% [middle of 8 runs]; (compound 1 µM) 36.8% [middle of 8 runs]; (compound 3.16 µM) 19.6% [middle of 8 runs]; (compound 10 µM) 12.4% [middle of 8 runs]. The IC50 under setting [1] is 494 nM [middle of 8 runs].
Consider `C=CC(=O)N1CCN(c2nc(OCC3CCCN3C)nc3c(F)c(-c4nc(N)cc(C)c4C(F)(F)F)c(Cl)cc23)C(C)C1` (stereo unspecified), for which the viability, T/C is 16.6% [middle of 12 runs] (compound 0.00316 µM); 14.1% [middle of 12 runs] (compound 0.01 µM); 13.4% [middle of 12 runs] (compound 0.0316 µM); 13.5% [middle of 12 runs] (compound 0.1 µM); 13.8% [middle of 12 runs] (compound 0.316 µM); 15.5% [middle of 12 runs] (compound 1 µM). Besides, the IC50 was below 3.16 nM under setting [1] and below 3.16 nM (curve of compound).
Turning to `C=CC(=O)Nc1cc(Nc2nccc(-c3cn(C)c4ccccc34)n2)c(OC)cc1N(C)CCN(C)C`, the viability, T/C reads like this: (compound 0.01 µM) 92.5% [middle of 4 runs]; (compound 0.0316 µM) 86% [middle of 4 runs]; (compound 0.1 µM) 68.7% [middle of 4 runs]; (compound 0.316 µM) 42.7% [middle of 4 runs]; (compound 1 µM) 23.2% [middle of 4 runs]. The IC50 (curve of compound) was 225 nM [middle of 4 runs].
As to `CC(C)NCC(C(=O)N1CCN(c2ncnc3c2C(C)CC3O)CC1)c1ccc(Cl)cc1` (stereo unspecified), the viability, T/C is, setting by setting: (compound 0.0316 µM) 101% [middle of 4 runs]; (compound 0.1 µM) 91.3% [middle of 4 runs]; (compound 0.316 µM) 77.4% [middle of 4 runs]; (compound 1 µM) 61.6% [middle of 4 runs]; (compound 10 µM) 63.5% [middle of 4 runs]. The IC50 (curve of compound) is above 10000 nM.
As for `CC(C)n1nc(-c2ccc3oc(N)nc3c2)c2c(N)ncnc21`, the viability, T/C (compound 0.000316 µM) is 90.9% [middle of 4 runs]; the viability, T/C (compound 0.001 µM) was 88.4% [middle of 4 runs]; the viability, T/C (compound 0.00316 µM) is 86.1% [middle of 4 runs]; the viability, T/C (compound 0.01 µM) is 75.3% [middle of 4 runs]; the viability, T/C (compound 0.0316 µM) was 56.1% [middle of 4 runs].
On to `CC(Nc1ccc2c(c1)OCCn1cc(N3C(=O)OCC3C(F)F)nc1-2)C(N)=O` (stereo unspecified), for which the viability, T/C reads like this: (compound 0.0316 µM) 79.5% [middle of 4 runs]; (compound 0.1 µM) 63.3% [middle of 4 runs]; (compound 0.316 µM) 52.5% [middle of 4 runs]; (compound 1 µM) 43.4% [middle of 4 runs]; (compound 3.16 µM) 33.8% (2×) and 32.1% and 37.8%; (compound 10 µM) 30.5% [middle of 4 runs]. Also, for the setting “curve of compound”, the IC50 was 386 nM [middle of 4 runs].
Consider `CC1(C)CCC(Nc2ncc(C(F)(F)F)c(-c3c[nH]c4c(P(C)(C)=O)c(C#N)ccc34)n2)CN1` (stereo unspecified), for which the viability, T/C by setting is: (compound 0.003 µM) 61.7% [middle of 4 runs]; (compound 0.00949 µM) 58.9% [middle of 4 runs]; (compound 0.03 µM) 58.4% [middle of 4 runs]; (compound 0.0949 µM) 60.6% [middle of 4 runs]; (compound 0.3 µM) 58% [middle of 4 runs].
Regarding `CCN1CCN(Cc2ccc(Nc3ncc(F)c(-c4cc(F)c5nc(C)n(C(C)C)c5c4)n3)nc2)CC1`, the viability, T/C was 94.3% [middle of 4 runs] (compound 0.00316 µM); 85% [middle of 4 runs] (compound 0.01 µM); 82.3% [middle of 4 runs] (compound 0.0316 µM); 80.7% [middle of 4 runs] (compound 0.1 µM); 75.6% [middle of 4 runs] (compound 0.316 µM); 67% [middle of 4 runs] (compound 1 µM). Moreover, the IC50 (curve of compound) was above 1000 nM.
Consider `CCc1c2c(nc3ccc(O)cc13)-c1cc3c(c(=O)n1C2)COC(=O)[C@]3(O)CC`, for which the viability, T/C by setting is: (compound 0.000949 µM) 93.3% [middle of 4 runs]; (compound 0.003 µM) 79% [middle of 4 runs]; (compound 0.00949 µM) 65.1% [middle of 4 runs]; (compound 0.03 µM) 48.5% [middle of 4 runs]; (compound 0.0949 µM) 27.1% [middle of 4 runs]; (compound 0.3 µM) 7.59% [middle of 4 runs]. Besides, the IC50 (curve of compound) was 26.9 nM [middle of 4 runs].
`CCn1c(-c2cc(N3CCN(C)CC3)cnc2C(C)OC)c2c3cc(ccc31)-c1csc(n1)CC(NC(=O)C1CC1C)C(=O)N1CCCC(N1)C(=O)OCC(C)(C)C2` (stereo unspecified): the viability, T/C is, setting by setting: (compound 0.000949 µM) 25.7% [middle of 8 runs]; (compound 0.003 µM) 11.3% [middle of 8 runs]; (compound 0.00949 µM) 6.53% [middle of 8 runs]; (compound 0.03 µM) 4.27% [middle of 8 runs]; (compound 0.0949 µM) 3.45% [middle of 8 runs]; (compound 0.3 µM) 2.94% [middle of 8 runs]. In addition, the IC50 (compound alone, run of 08/26/2024) is below 0.949 nM.
`CCn1c(-c2cccnc2C(C)OC)c2c3cc(ccc31)N1CCOC(CC(NC(=O)C(C(C)C)N(C)C(=O)C3(F)CCN(C(=O)C#CC(C)(C)N(C)C)CC3)C(=O)N3CCCC(N3)C(=O)OCC(C)(C)C2)C1` (stereo unspecified): the viability, T/C was 15.2% [middle of 8 runs] (compound 0.000949 µM); 15% [middle of 8 runs] (compound 0.003 µM); 15.1% [middle of 7 runs] (compound 0.00949 µM); 13.5% [middle of 8 runs] (compound 0.03 µM); 12.2% [middle of 8 runs] (compound 0.0949 µM); 10.3% [middle of 8 runs] (compound 0.3 µM). The IC50 (compound alone, run of 08/20/2024) is below 0.949 nM.
Take `Nc1ccn(C2OC(CO)C(O)C2(F)F)c(=O)n1` (stereo unspecified): the viability, T/C is, setting by setting: (compound 0.00316 µM) 93.3% [middle of 4 runs]; (compound 0.01 µM) 81% [middle of 4 runs]; (compound 0.0316 µM) 79.1% [middle of 4 runs]; (compound 0.1 µM) 71.7% [middle of 4 runs]; (compound 0.316 µM) 69.5% [middle of 4 runs]; (compound 1 µM) 61.7% [middle of 4 runs]. Besides, the IC50 (curve of compound) was above 1000 nM.
Regarding `O=C(c1ccc(F)c(F)c1Nc1ccc(I)cc1F)N1CC(O)([C@@H]2CCCCN2)C1`, the viability, T/C (compound 0.00316 µM) was 85.1% [middle of 4 runs]; the viability, T/C (compound 0.01 µM) is 58.9% [middle of 4 runs]; the viability, T/C (compound 0.0316 µM) was 39.8% [middle of 4 runs]; the viability, T/C (compound 0.1 µM) was 24% [middle of 4 runs]; the viability, T/C (compound 0.316 µM) was 11.1% [middle of 4 runs]; the viability, T/C (compound 1 µM) was 3.21% [middle of 4 runs]. Besides, under “curve of compound”, the half-inhibitory concentration (IC50) is 17.3 nM [middle of 4 runs].
